Measurements: patent publication US8592405B2, “Synergistic antimicrobial composition” (Dow Global Technologies LLC, priority 2009, dated 2013)
Values joined by “and” are separate entries in the source; they are usually repeats but may differ in a detail not shown here. Equal entries are not always repeated.

How the values were obtained:
Format in all cases: cell-based
[1] = system: Aspergillus niger (An); test: Fungal efficacy testing, modified ASTM 5590 (12-well, dry paint film); conditions: three weeks; for % inhibition: at the Total conc; for Total conc, ppm: total biocide in paint taken as minimum inhibitory concentration, 30 C
Description: Samples of white acrylic latex paint free of biocides were prepared in 50 ml aliquots. Each biocide was post added to give the necessary active ingredient concentration in the paint. The total biocides concentrations tested were 750, 1500, 2500 and 5000 ppm. After biocides addition, each sample was hand mixed for a minimum of 30 sec, followed by a 3 min run on the paint shaker (RED DEVIL). Each of the paint samples as well as a control sample (containing no biocide) were used to prepare films on black plastic-vinyl chloride/acetate copolymer panels (LENETA, Mahwah, N.J.) using a 3 mil bird bar applicator. The panels were thoroughly dried for 5 days avoiding direct exposure to sunlight. Square discs (15 mm^2) were cut out from each panel and were used as the substrate for fungal and algal efficacy tests. This sample size allowed for an agar border when the sample disc was placed into the well of the test plate.
(§1) The appropriate media (BOLD'S 3N for Chlorophytes, BG-11 for Cyanobacteria, and PDA for fungi) were used to support microbial growth. The test plates were maintained at room temp (25° C.-26° C.), in a cycled light-dark environment, for 3 weeks for algae. Plates for fungal challenge tests were maintained at 30C for three weeks. At the end of incubation period the samples were scored for percent area covered by visible microbial growth.
ASTM 5590 is a standard accelerated test method for determining resistance of various coatings (including paints) to fungal defacement. To accommodate for high-throughput screening, this method was scaled down from petri plates to 12-well plates. To set up the test, an agar plug was placed at the bottom of each well of the sterile 12-well plate. A single coupon was placed with a pair of sterile forceps at the center of the agar plug (on top) with the painted surface facing upwards. Each well was inoculated with 150 μl of organism (1×10^6 cfu/ml) making sure that the whole surface (paint film as well as the agar surrounding it) was evenly covered. The plates were incubated at 30° C. in presence of moisture, for a period of three weeks. The total percent area covered was evaluated and recorded at the end of each week after the 2nd week and recorded in increments of 5%. […]

[2] = system: Aa + Ap (Alternaria alternata + Aureobasidium pullulans); test: Fungal efficacy testing, modified ASTM 5590 (6-well, mixed inoculum, Example 4); conditions: four weeks; for Total conc, ppm: Aa + Ap mixed inoculum, NE = no end point at the concentration tested; for % inhibition: Aa + Ap, at the Total conc
Description: [The source words this procedure for another target and reports this target under the same test.] The SI is calculated based on F. C. Kull et.
(§2) A single or blend of biocides was post added into white acrylic latex paint free of biocides to give a maximum total active ingredient/s concentration tested. This paint was then diluted with a biocide free acrylic latex paint at concentrations range of 75 to 12.5% w/w to give desired concentrations for the testing. Depending on the type of biocide blends tested, the total biocides concentrations varies from 200 to 5000 ppm. After biocides addition or dilution each sample was hand mixed for at least a minute until uniformity is achieved. Each of the paint samples as well as a control sample (containing no biocide) were used to prepare films on black plastic-vinyl chloride/acetate copolymer panels (LENETA, Mahwah, N.J.) using a 3 mil bird bar applicator. The panels were thoroughly dried for at least 2 days avoiding direct exposure to sunlight. Square discs (0.5 inch^2, 13 mm^2) were cut out from each panel and were used as the substrate for fungal and algal efficacy tests. This sample size allowed for an agar border when the sample disc was placed into the well of the test plate. Each sample was tested in duplicate
as §1, with “for four” for “for 3”, “at 30 C” for “at 30C”, “for four” for “for three”, “of the” for “of”
ASTM 5590 is a standard accelerated test method for determining resistance of various coatings (including paints) to fungal defacement. To accommodate for high-throughput screening, this method was scaled down from petri plates to 6-well plates. To set up the test, an agar plug was placed at the bottom of each well of the sterile 6-well plate. A single coupon was placed with a pair of sterile forceps at the center of the agar plug (on top) with the painted surface facing upwards. Fungal inoculums were prepared by mixing equal concentrations (1×10^6 cfu/ml) and equal volumes (depending on number of samples to be tested) of like growing organisms. Cladosporium herbarum was mixed with Aureobasidium pullulans. Aspergillus niger was mixed with Penicillium funiculosum. Alternaria alternata was mixed with Trichoderma viride. Each well was inoculated with 400 μl of organism mixture (1×10^6 cfu/ml) making sure that the whole surface (paint film as well as the agar surrounding it) was evenly covered. The plates were incubated at 30° C. in presence of moisture, for a period of four weeks. The total percent area covered was evaluated and recorded at the end of each week after the 2nd week and recorded in increments of 5%.

[3] = system: Cp + To + Ta (Calotrix parientina, Trentepohlia odorata, Trentepohlia aurea); test: Algal efficacy testing, modified ASTM 5589 (6-well, mixed inoculum, Example 4); conditions: four weeks; for Total conc, ppm: Cp + To + Ta mixed inoculum, NE = no end point at the concentration tested; for % inhibition: Cp + To + Ta, at the Total conc
Description: as §2
as §1, with “for four” for “for 3”, “at 30 C” for “at 30C”, “for four” for “for three”, “of the” for “of”
(§3) ASTM 5589 is a standard accelerated test method for determining resistance of various coatings (including paints) to algal defacement. To accommodate for high-throughput screening, this method was scaled down from petri plates to 6-well plates. A single coupon was placed with a pair of sterile forceps at the center of the agar plug (on top) with the painted surface facing upwards. Algal inoculums were prepared by mixing equal concentrations (1×10^6 cfu/ml) and equal volumes (depending on number of samples to be inoculated) of like growing organisms. In this study, Gloeocapsa sp. and Oscillatoria sp. were a mix of cyanobacteria grown on BG-11 media. Chlorella sp., Chlorella kessleri, and Nostoc commune are unicellular chlorphytes that were mixed and grown on Bold media. Trentepohlia aurea, Trentepohlia odorata, and Calotrix parientina are filamentous algae that were mixed and grown on Bold media. Each well was inoculated with 400 μl of organism mixture (1×10^6 cfu/ml) making sure that the whole surface (paint film as well as the agar surrounding it) was evenly covered. The plates were incubated at room temp (25° C.-26° C.) with cyclic exposure to light (OTT-Lite model #OTL4012P, 40 Watt, 26 KLumen) and dark phases, for a period of four weeks. The total area covered was evaluated at the end of each week according to percent area covered in 5% increments. While rating the plates, notations were made for zones of inhibition.

[4] = system: Cs + Ck + Nc (Chlorella sp., Chlorella kessleri, Nostoc commune); test: as above; conditions: four weeks; for Total conc, ppm: Cs + Ck + Nc mixed inoculum, NE = no end point at the concentration tested; for % inhibition: Cs + Ck + Nc, at the Total conc
Description: as §2
as §1, with “for four” for “for 3”, “at 30 C” for “at 30C”, “for four” for “for three”, “of the” for “of”
as §3

[5] = system: Gs + Os (Gloeocapsa sp. + Oscillatoria sp.); test: as above; conditions: four weeks; for Total conc, ppm: Gs + Os mixed inoculum, NE = no end point at the concentration tested; for % inhibition: Gs + Os, at the Total conc
Description: as §2
as §1, with “for four” for “for 3”, “at 30 C” for “at 30C”, “for four” for “for three”, “of the” for “of”
as §3

SMILES | % inhibition [1] [%] | Total conc, ppm [1] | Total conc, ppm [2] [ppm] | % inhibition [2] [%] | Total conc, ppm [3] [ppm] | % inhibition [3] [%] | Total conc, ppm [4] [ppm] | % inhibition [4] [%] | Total conc, ppm [5] [ppm] | % inhibition [5] [%]
CCCCCCCCn1sc(Cl)c(Cl)c1=O [DCOIT, 4,5-dichloro-2-n-octyl-4-isothiazolin-3-one] | 75 | 5000 ppm | 862.5 | 100 | 575 | 100 | 575 | 100 | 287.5 | 100
Cc1ccc(S(=O)(=O)C(I)I)cc1 [DIMTS, diiodomethyl-p-tolylsulfone] | 75 | 750 ppm | 1250 | 100 | 1875 | 95 | 1250 | 100 | 1875 | 100
CN(C)C(=O)Nc1cccc(C(F)(F)F)c1 [Fluometuron, 1,1-dimethyl-3-(α,α,α-trifluoro-m-tolyl)urea] | – | 2500 ppm and 5000 ppm | 5000 | 0 | 1250 | 100 | 1250 | 100 | 312.5 | 100
